Laboratory results taken from patent US9243281B2, “Neuroprotective chemicals and methods for identifying and using same” (Board of Regents of The University of Texas System, priority 2013, dated 2016).

Legend:
p70 (NAMPT) = molecular target: T1, p70 (NAMPT) (Homo sapiens, UniProt P43490); assay: binding competition for photo-crosslinking of P7C3-S326 to p70 in H2122 cells; settings: 0.3 μM P7C3-S326 plus 5 μM competitor, p70 band intensity, P7C3-S326 alone compared with plus competitor, vehicle 1.0
T1 construct: endogenous in cells; host or cells: H2122 lung cancer cells
Procedure, shortened: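 Competition for photo-crosslinking: P7C3 analogs (5 uM) were added alongside the 0.3 μM P7C3-S326 probe to H2122 cells for 2 hours before 15 minutes of 306 nm UV irradiation. In-gel fluorescence of the p70 band after click labeling was normalized to DMSO.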

[1] = test system: hippocampal neurogenesis (Dentate Gyrus); assay: in vivo neurogenesis assay (BrdU+ cells in dentate gyrus); design: species or system mice
Procedure, shortened: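 New hippocampal cells were tracked by daily BrdU injections and anti-BrdU staining of brain sections. Adult mice (two per pool of ten compounds) got week-long intracerebroventricular infusion by mini-pump, dosed for mid-nanomolar exposure.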

[2] = living mice, vehicle (DMSO) 7.3

T1 sequence (P43490 whole entry): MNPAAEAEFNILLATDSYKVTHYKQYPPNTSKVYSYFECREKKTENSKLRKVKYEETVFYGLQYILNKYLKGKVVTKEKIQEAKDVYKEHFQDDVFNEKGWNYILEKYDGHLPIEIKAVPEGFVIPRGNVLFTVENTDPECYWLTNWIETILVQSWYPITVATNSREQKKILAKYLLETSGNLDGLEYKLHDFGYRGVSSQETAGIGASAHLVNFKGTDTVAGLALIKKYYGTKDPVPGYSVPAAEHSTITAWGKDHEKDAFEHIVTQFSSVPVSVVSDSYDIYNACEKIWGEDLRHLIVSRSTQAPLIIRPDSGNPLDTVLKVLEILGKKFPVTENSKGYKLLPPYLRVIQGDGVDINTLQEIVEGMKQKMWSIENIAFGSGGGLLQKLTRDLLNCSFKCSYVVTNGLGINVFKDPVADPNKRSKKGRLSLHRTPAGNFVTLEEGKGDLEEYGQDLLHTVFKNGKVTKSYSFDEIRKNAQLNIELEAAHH

| SMILES | Binding competition (p70 (NAMPT)) | Neurogenesis # BrdU+ Cells (X10E06)/mm3 Dentate Gyrus [1, 2] | Neurogenesis # BrdU+ Cells (X10E06)/mm3 Dentate Gyrus ([1]; mouse, in vivo) |
| --- | --- | --- | --- |
| CNC(=O)Cn1c2ccc(Br)cc2c2cc(Br)ccc21 [S214] | 1.7 | 9.9 (X10E06)/mm3 |  |
| OC(CSc1ccccc1)Cn1c2ccc(Br)cc2c2cc(Br)ccc21 (centres unmarked) [S7] | 2.0 | 15.5 (X10E06)/mm3 |  |
| O=C1CC2(CCCC2)CC(=O)N1CCCCN1CCN(c2ncccn2)CC1 [S127, Buspar, reference compound] | 1.2 | 6.9 (X10E06)/mm3 |  |
| OC(CSc1ccccc1)CN1c2ccccc2CCc2ccccc21 (centres unmarked) [S134] | 1.9 | 9.7 (X10E06)/mm3 |  |
| O[C@@H](COc1ccccc1)Cn1c2ccc(Br)cc2c2cc(Br)ccc21 [S40] | 2.8 | 8.1 (X10E06)/mm3 |  |
| N#CN1CCc2c(c3cc(Br)ccc3n2CC(O)COc2ccccc2)C1 (centres unmarked) [S107] | 3.5 | 7.3 (X10E06)/mm3 |  |
| OC(CNc1ccccc1)Cn1c2ccc(I)cc2c2cc(I)ccc21 (centres unmarked) [S63] | 1.5 | 8.3 (X10E06)/mm3 |  |
| O=C(O)c1ccc2c(c1)c1cc(Br)ccc1n2CC(O)COc1ccccc1 (centres unmarked) [S153] | 1.4 | 10.7 (X10E06)/mm3 |  |
| O=C(O)CN1c2ccccc2CCc2ccccc21 [S210] | 1.1 | 10.7 (X10E06)/mm3 |  |
| Brc1ccc2[nH]c3ccccc3c2c1 [S236] | 1.7 | 12.3 (X10E06)/mm3 |  |
| O=C(O)c1cc2c3cc(Br)ccc3n(CC(O)COc3ccccc3)c2cn1 (centres unmarked) [S173] | 1.0 | 12.8 (X10E06)/mm3 |  |
| COCC(O)Cn1c2ccc(Br)cc2c2cc(Br)ccc21 (centres unmarked) [S19] | 2.9 | 10.5 (X10E06)/mm3 |  |
| COc1cccc(NCC(O)CN2c3ccccc3CCc3ccccc32)c1 (centres unmarked) [S158] | 1.3 | 12.5 (X10E06)/mm3 |  |
| COc1ccc2[nH]c3ccc(Br)cc3c2c1 [S209] | 3.7 | 15.0 (X10E06)/mm3 |  |
| OC(CNc1cccc2ccccc12)Cn1c(-c2ccccc2)cc2ccccc21 (centres unmarked) [S185] | 1.5 | 12.6 (X10E06)/mm3 |  |
| O=C(O)c1ccc2[nH]c3ccc(Br)cc3c2c1 [S225] | 2.2 | 15.2 (X10E06)/mm3 |  |
| CC(C)NCC(O)CN1c2ccccc2CCc2ccccc21 (centres unmarked) [S144] | 1.4 | 9.1 (X10E06)/mm3 |  |
| CC(C)(O)Cn1c2ccc(Br)cc2c2cc(Br)ccc21 [S169] | 3.0 | 9.2 (X10E06)/mm3 |  |
| CN(C)CCCC1(c2ccc(F)cc2)OCc2cc(C#N)ccc21 (centres unmarked) [S119, Celexa, reference compound] | 1.2 | 8.6 (X10E06)/mm3 |  |
| OC(CN1c2ccccc2CCc2ccccc21)CN1c2ccccc2CCc2ccccc21 [S170] | 1.5 | 11.2 (X10E06)/mm3 |  |
| CN(C)CCC=C1c2ccccc2CCc2ccccc21.Cl [S86, Amitriptyline, reference compound] | 1.3 | 9.7 (X10E06)/mm3 |  |
| O=S(=O)(CC(O)Cn1c2ccc(Br)cc2c2cc(Br)ccc21)c1ccc(OCCF)cc1 (centres unmarked) [S156] | 1.2 | 15.0 (X10E06)/mm3 |  |
| COc1cccc(NCC(O)Cn2c3ccc(C)cc3c3cc(C)ccc32)c1 (centres unmarked) [S2] | 3.7 | 8.1 (X10E06)/mm3 |  |
| N[C@@H]1C[C@H]1c1ccccc1 [S118, Parnate, reference compound] | 1.3 |  | 8.3 (X10E06)/mm3 |
| OC(COc1ccccc1)CN1c2ccccc2CCc2ccccc21 (centres unmarked) [S135] | 3.4 | 7.1 (X10E06)/mm3 |  |

| SMILES | Binding competition (p70 (NAMPT)) | Neurogenesis # BrdU+ Cells (X10E06)/mm3 Dentate Gyrus [1, 2] | Neurogenesis # BrdU+ Cells (X10E06)/mm3 Dentate Gyrus ([1]; mouse, in vivo) |
| --- | --- | --- | --- |
| [N-]=[N+]=Nc1cccc(NCC(O)Cn2c3ccc(Br)cc3c3cc(Br)ccc32)c1 (centres unmarked) [S36] | 3.1 | 8.9 (X10E06)/mm3 |  |
| CC(=O)NCCOCC(O)Cn1c2ccc(Br)cc2c2cc(Br)ccc21 (centres unmarked) [S43] | 1.7 | 11.7 (X10E06)/mm3 |  |
| Nc1ccc(SCC(O)Cn2c3ccc(Br)cc3c3cc(Br)ccc32)cc1 (centres unmarked) [S96] | 3.9 | 8.7 (X10E06)/mm3 |  |
| O=S(=O)(C[C@H](O)Cn1c2ccc(Br)cc2c2cc(Br)ccc21)c1ccccc1 [S51] | 2.4 | 13.2 (X10E06)/mm3 |  |
| COc1ccc([C@H](CN(C)C)C2(O)CCCCC2)cc1 [S124, Effexor, reference compound] | 1.1 | 8.9 (X10E06)/mm3 |  |
| CN(C)c1nc(O)c2[nH]c3ccccc3c2n1 [S245] | 1.0 | 16.2 (X10E06)/mm3 |  |
| COc1cccc(NC(=O)C(O)Cn2c3ccc(Br)cc3c3cc(Br)ccc32)c1 (centres unmarked) [S31] | 6.2 | 10.4 (X10E06)/mm3 |  |
| CC(C)(C)NCC(O)CN1c2ccccc2CCc2ccccc21 (centres unmarked) [S145] | 2.6 | 12.5 (X10E06)/mm3 |  |
| OCCn1c2ccc(Br)cc2c2cc(Br)ccc21 [S171] | 3.2 | 13.1 (X10E06)/mm3 |  |
| N#Cc1ccc2c(c1)c1cc(C#N)ccc1n2CC(O)COc1ccccc1 (centres unmarked) [S111] | 4.1 | 12.3 (X10E06)/mm3 |  |
| OC(CNc1ccccn1)Cn1c2ccc(Br)cc2c2cc(Br)ccc21 (centres unmarked) [S38] | 4.2 | 13.7 (X10E06)/mm3 |  |
| CN(C)C(=O)COc1ccc(NCC(F)Cn2c3ccc(Br)cc3c3cc(Br)ccc32)cc1 (centres unmarked) [S70] | 2.5 | 7.4 (X10E06)/mm3 |  |
| OC(COC1CCCCC1)Cn1c2ccc(Br)cc2c2cc(Br)ccc21 (centres unmarked) [S178] | 1.7 | 13.8 (X10E06)/mm3 |  |
| O=C(O)Cn1c2ccc(Br)cc2c2cc(C(=O)O)ncc21 [S227] | 0.9 | 12.9 (X10E06)/mm3 |  |
| CC(C)(C)OC(=O)CCOCCOCCOCCOc1cccc(NCC(O)Cn2c3ccc(Br)cc3c3cc(Br)ccc32)c1 (centres unmarked) [S157] | 1.5 | 10.2 (X10E06)/mm3 |  |
| NC(=O)c1ccc2c(c1)c1cc(Br)ccc1n2CC(=O)O [S238] | 0.9 | 9.4 (X10E06)/mm3 |  |
| N#Cc1ccc(N(CC(O)COc2ccccc2)c2ccc(Br)cc2)nc1 (centres unmarked) [S136] | 5.7 | 6.5 (X10E06)/mm3 |  |
| [O-][n+]1ccc2c(c1)c1cc(Br)ccc1n2CC(O)COc1ccccc1 (centres unmarked) [S195] | 1.1 | 9.0 (X10E06)/mm3 |  |
| NCC(O)Cn1c2ccc(Br)cc2c2cc(Br)ccc21 (centres unmarked) [S20] | 1.3 | 12.7 (X10E06)/mm3 |  |
| OC(CNc1ccccc1)Cn1c2ccc(C3CC3)cc2c2cc(C3CC3)ccc21 (centres unmarked) [S62] | 1.2 | 11.8 (X10E06)/mm3 |  |
| N#Cc1ccc2c(c1)c1ccccc1n2CC(O)COc1ccccc1 (centres unmarked) [S138] | 6.5 | 10.4 (X10E06)/mm3 |  |
| COc1cccc(NCC(O)Cn2c3ccc(C)cc3c3cc(Br)ccc32)c1 (centres unmarked) [S14] | 4.5 | 13.5 (X10E06)/mm3 |  |
| CN1CCc2c(c3cc(Br)ccc3n2CC(O)COc2ccccc2)C1 (centres unmarked) [S131] | 3.5 | 7.3 (X10E06)/mm3 |  |
| N#Cc1ccc2c(c1)c1cc(C#N)ccc1n2CC(O)CSc1ccccc1 (centres unmarked) [S110] | 6.2 | 10.5 (X10E06)/mm3 |  |
